For data set [1] the following is noted: taken orally; cited from earlier work.
In data set [2] the test system is formulation strains (AMUC, BINF, CBEI, CBUT, EHAL). Type of data set: cell-based.

For the molecule `Cc1cnc(C(=O)NCCc2ccc(S(=O)(=O)NC(=O)NC3CCCCC3)cc2)cn1` [glipizide], in data set [1], the fecal elimination percentage was 10%.
With `CCC1=C(C)CN(C(=O)NCCc2ccc(S(=O)(=O)NC(=O)N[C@H]3CC[C@H](C)CC3)cc2)C1=O` [glimepiride], in data set [1], the fecal elimination percentage was 40% and the plasma half-life is 5 to 8 h. The “growth inhibition of formulation strains (yield decrease, lag increase)” value in data set [2] is listed as “largest inhibitory effect overall”.
On to `COc1ccc(Cl)cc1C(=O)NCCc1ccc(S(=O)(=O)NC(=O)NC2CCCCC2)cc1` [glyburide], for which, in data set [1], the fecal elimination percentage was 50% and the plasma half-life is 4 to 10 h. For the same molecule, the “growth inhibition of formulation strains (yield decrease, lag increase)” value in data set [2] is listed as “largest inhibitory effect overall”.

Source of the values: patent publication US20240277781A1, “Compositions Comprising Microbes and Methods of Use and Making Thereof” (Pendulum Therapeutics, Inc., priority 2021, published 2024).
